In US4451457A, “Cyclodextrin and method for promoting the proliferation of intestinal bifidobacteria” (Kureha Kagaku Kogyo Kabushiki Kaisha, priority 1981, dated 1984):

Tests used:
Lactobacilli = experiment: Viable count of Lactobacilli in feces of mice; assay type: in vivo, female C3H/He mice; conditions: for Rate of proliferation (B/A), Lactobacilli / Viable count 7 days after (B) administration, Lactobacilli: 2.0 g/kg/day; for Rate of proliferation (B/A), Lactobacilli: 7 days after / before; for Viable count 7 days after (B) administration, Lactobacilli / Viable count before (A) administration, Lactobacilli: average of five mice
Description: (§1) Each solution or suspension was administered to female C3H/He mice at 8th week after birth, one group consisting of 5 animals and the number of groups being four, the dosage being 2.0 g of cyclodextrin/kg of body weight/day, continuously for 2 weeks.
(§2) Before and 7 days after the administration, feces of each mouse was collected, and after diluting the collected feces with 100 times by weight of an anaerobic phosphate buffer and grinding the diluted feces, each 0.1 ml of the ground feces was inoculated on each culture medium (refer to Table 3) for the specified bacterial species, and the thus inoculated culture media were incubated at 37° C. for one to five days under the aerobic conditions or anaerobic conditions (according to the anaerobic grove box method).
(§3) After the incubation was over, the number of bifidobacteria, Escherichia coli, Lactobacilli and Bacteroides sp. in the culture medium was counted. The results are shown in Tables 4 to 7, the counts being the average of five mice.

[1] = Acute toxicity, LD50 in rats; assay type: in vivo, rat; conditions: in vivo, male rat
Description: (§4) Each cyclodextrin (α-, β- and γ-) was administered via the following routes to rats and mice and LD50 was measured.

rat = experiment: Acute toxicity, LD50 in rats; assay type: in vivo; conditions: female rat
Description: as §4

[2] = Acute toxicity, LD50 in mice; assay type: in vivo, Mouse; conditions: in vivo, male mouse
Description: as §4

Mouse = experiment: Acute toxicity, LD50 in mice; assay type: in vivo; conditions: female mouse
Description: as §4

Bacteroides sp. = experiment: Viable count of Bacteroides sp. in feces of mice; assay type: in vivo, female C3H/He mice; conditions: for Rate of proliferation (B/A), Bacteroides sp. / Viable count 7 days after (B) administration, Bacteroides sp.: 2.0 g/kg/day; for Rate of proliferation (B/A), Bacteroides sp.: 7 days after / before; for Viable count 7 days after (B) administration, Bacteroides sp. / Viable count before (A) administration, Bacteroides sp.: average of five mice
Description: as §1, §2
NBGT agar same as above
as §3

bifidobacteria = experiment: Intestinal proliferation of bifidobacteria in mice, viable count in feces; assay type: in vivo, female C3H/He mice; conditions: for Rate of proliferation (B/A), bifidobacteria / Viable count 7 days after (B) administration, bifidobacteria: 2.0 g/kg/day; for Rate of proliferation (B/A), bifidobacteria: 7 days after / before; for Viable count 7 days after (B) administration, bifidobacteria / Viable count before (A) administration, bifidobacteria: average of five mice
Description: The activity of cyclodextrin in promoting the intestinal proliferation of bifidobacteria was recognized by the results of test as described below. Namely, cyclodextrin was administered orally to test animals such as mouse at the dose of 2 g/kg of body weight per day for 2 weeks, and the number of viable intestinal bacteria such as bifidobacteria, Escherichia coli, Lactobacilli and Bacteroides sp. in the feces of the test animal seven days after the administration were counted by the conventional method. […] Namely, when the bifidobacteria-proliferating agent of the invention is administered to the living body, it is possible to proliferate only bifidobacteria in the intestine of the living body without disturbing the intraintestinal bacterial flora.
as §1, §2
BS agar anaerobic, 37° C., 5 days
as §3

Escherichia coli = experiment: Viable count of Escherichia coli in feces of mice; assay type: in vivo, female C3H/He mice; conditions: for Rate of proliferation (B/A), Escherichia coli / Viable count 7 days after (B) administration, Escherichia coli: 2.0 g/kg/day; for Rate of proliferation (B/A), Escherichia coli: 7 days after / before; for Viable count 7 days after (B) administration, Escherichia coli / Viable count before (A) administration, Escherichia coli: average of five mice
Description: as §1, §2
DHL agar aerobic, 37° C., one day
as §3

Molecule	Rate of proliferation (B/A), Lactobacilli (Lactobacilli)	Viable count 7 days after (B) administration, Lactobacilli (Lactobacilli)	Viable count before (A) administration, Lactobacilli (Lactobacilli)	LD50 ([1]; ip, intraperitoneal) [mg/kg]	LD50 ([1]; sc, subcutaneous) [mg/kg]	LD50 ([1]; oral) [mg/kg]	LD50 (rat; intraperitoneal) [mg/kg]	LD50 (rat; oral) [mg/kg]	LD50 (rat; subcutaneous) [mg/kg]	LD50 ([2]; ip, intraperitoneal) [mg/kg]	LD50 ([2]; sc, subcutaneous) [mg/kg]	LD50 ([2]; oral) [mg/kg]	LD50 (Mouse; intraperitoneal) [mg/kg]	LD50 (Mouse; oral) [mg/kg]	LD50 (Mouse; subcutaneous) [mg/kg]	Rate of proliferation (B/A), Bacteroides sp. (Bacteroides sp.)	Viable count 7 days after (B) administration, Bacteroides sp. (Bacteroides sp.)	Viable count before (A) administration, Bacteroides sp. (Bacteroides sp.)	Rate of proliferation (B/A), bifidobacteria (bifidobacteria)	Viable count 7 days after (B) administration, bifidobacteria (bifidobacteria)	further results
OC[C@H]1O[C@@H]2O[C@H]3[C@H](O)[C@@H](O)[C@@H](O[C@H]4[C@H](O)[C@@H](O)[C@@H](O[C@H]5[C@H](O)[C@@H](O)[C@@H](O[C@H]6[C@H](O)[C@@H](O)[C@@H](O[C@H]7[C@H](O)[C@@H](O)[C@@H](O[C@H]8[C@H](O)[C@@H](O)[C@@H](O[C@H]1[C@H](O)[C@H]2O)O[C@@H]8CO)O[C@@H]7CO)O[C@@H]6CO)O[C@@H]5CO)O[C@@H]4CO)O[C@@H]3CO [β-cyclodextrin]	1.47	2.2 × 10^9 per g of the feces	1.5 × 10^9 per g of the feces	> 1200	> 1500	> 12000	> 1200	> 12000	> 1500	> 900	> 900	> 12500	> 900	> 12500	> 900	1.06	3.7 × 10^8 per g of the feces	3.5 × 10^8 per g of the feces	1385	1.8 × 10^8 per g of the feces	Viable count before (A) administration, bifidobacteria (bifidobacteria): 1.3 × 10^5 per g of the feces; Rate of proliferation (B/A), Escherichia coli (Escherichia coli): 1.45; Viable count 7 days after (B) administration, Escherichia coli (Escherichia coli): 5.8 × 10^6 per g of the feces; Viable count before (A) administration, Escherichia coli (Escherichia coli): 4.0 × 10^6 per g of the feces
OC[C@H]1O[C@@H]2O[C@H]3[C@H](O)[C@@H](O)[C@@H](O[C@H]4[C@H](O)[C@@H](O)[C@@H](O[C@H]5[C@H](O)[C@@H](O)[C@@H](O[C@H]6[C@H](O)[C@@H](O)[C@@H](O[C@H]7[C@H](O)[C@@H](O)[C@@H](O[C@H]8[C@H](O)[C@@H](O)[C@@H](O[C@H]9[C@H](O)[C@@H](O)[C@@H](O[C@H]1[C@H](O)[C@H]2O)O[C@@H]9CO)O[C@@H]8CO)O[C@@H]7CO)O[C@@H]6CO)O[C@@H]5CO)O[C@@H]4CO)O[C@@H]3CO [γ-cyclodextrin]	0.78	7.0 × 10^8 per g of the feces	9.0 × 10^8 per g of the feces	> 1200	> 1500	> 12000	> 1200	> 12000	> 1500	> 900	> 900	> 12500	> 900	> 12500	> 900	3.00	3.0 × 10^8 per g of the feces	1.0 × 10^8 per g of the feces	90	1.8 × 10^6 per g of the feces	Viable count before (A) administration, bifidobacteria (bifidobacteria): 2.0 × 10^4 per g of the feces; Rate of proliferation (B/A), Escherichia coli (Escherichia coli): 0.93; Viable count 7 days after (B) administration, Escherichia coli (Escherichia coli): 7.0 × 10^6 per g of the feces; Viable count before (A) administration, Escherichia coli (Escherichia coli): 7.5 × 10^6 per g of the feces
OC[C@H]1O[C@@H]2O[C@H]3[C@H](O)[C@@H](O)[C@@H](O[C@H]4[C@H](O)[C@@H](O)[C@@H](O[C@H]5[C@H](O)[C@@H](O)[C@@H](O[C@H]6[C@H](O)[C@@H](O)[C@@H](O[C@H]7[C@H](O)[C@@H](O)[C@@H](O[C@H]1[C@H](O)[C@H]2O)O[C@@H]7CO)O[C@@H]6CO)O[C@@H]5CO)O[C@@H]4CO)O[C@@H]3CO [α-cyclodextrin]				> 1200	> 1500	> 12000	> 1200	> 12000	> 1500	> 900	> 900	> 12500	> 900	> 12500	> 900						
dextrin [reference compound]	1.20	6.0 × 10^8 per g of the feces	5.0 × 10^8 per g of the feces													2.50	8.0 × 10^8 per g of the feces	3.2 × 10^8 per g of the feces	0.70	1.6 × 10^5 per g of the feces	Viable count before (A) administration, bifidobacteria (bifidobacteria): 2.3 × 10^5 per g of the feces; activity to the proliferation of bifidobacteria, in words (bifidobacteria; mouse, oral, Table 7): did not exhibit such an activity; Rate of proliferation (B/A), Escherichia coli (Escherichia coli): 0.80; Viable count 7 days after (B) administration, Escherichia coli (Escherichia coli): 7.2 × 10^6 per g of the feces; Viable count before (A) administration, Escherichia coli (Escherichia coli): 9.0 × 10^6 per g of the feces
